According to PMC9052211 (RSC Advances, 2020):

How the values were obtained:
Assay type in all cases: cell-based
[1] = tested on: Jurkat neoplastic cells; assay: Cytotoxic activity by flow cytometry with 7-AAD staining, Jurkat; settings: Homo sapiens, 24 h, read-out: Cytotoxic activity IC50, Jurkat
[2] = tested on: K562 neoplastic cells; assay: Cytotoxic activity by flow cytometry with 7-AAD staining, K562; settings: Homo sapiens, K562, 24 h, read-out: Cytotoxic activity IC50, K562
[3] = tested on: U937 neoplastic cells; assay: Cytotoxic activity by flow cytometry with 7-AAD staining, U937; settings: Homo sapiens, U-937, 24 h, read-out: Cytotoxic activity IC50, U937
[4] = Cytotoxic activity by flow cytometry with 7-AAD staining, HEK293; settings: human

Cc1n[nH]c(C)c1CSc1ccccc1 [Compound 4a, 3,5-Dimethyl-4-[(phenylsulfanyl)methyl]-1H-pyrazole]
IC50 [1]: 2470 ± 30 nM | IC50 [2]: 2890 ± 30 nM | IC50 [3]: 2940 ± 30 nM | IC50 at 24 h [4]: 3800 ± 30 nM

Cc1n[nH]c(C)c1CSCc1ccccc1 [Compound 4b, 4-[(Benzylsulfanyl)methyl]-3,5-dimethyl-1H-pyrazole]
IC50 [1]: 1240 ± 50 nM | IC50 [2]: 1980 ± 60 nM | IC50 [3]: 2150 ± 60 nM | IC50 at 24 h [4]: 2980 ± 60 nM

Cc1n[nH]c(C)c1CSC1CCCCC1 [Compound 4c, 4-[(Cyclohexylsulfanyl)methyl]-3,5-dimethyl-1H-pyrazole]
IC50 [1]: 1490 ± 60 nM | IC50 [2]: 2160 ± 60 nM | IC50 [3]: 1980 ± 70 nM | IC50 at 24 h [4]: 3150 ± 50 nM

Cc1n[nH]c(C)c1CSc1ccc(O)cc1 [Compound 4d, 4-{[(3,5-Dimethyl-1H-pyrazol-4-yl)methyl]sulfanyl}-phenol]
IC50 [1]: 1890 ± 20 nM | IC50 [2]: 2340 ± 10 nM | IC50 [3]: 2270 ± 20 nM | IC50 at 24 h [4]: 3340 ± 80 nM
